The values that follow are results of earlier work, collected in patent US20070036839A1, “Phosphorylated glucomannane polysaccharides containing 1-6 and 1-2 linkages increase weight gain in poultry” (priority 2005, published 2007).

For the data set, the system named is macrophages. The conditions noted are these: single low dose by intramuscular injection; cited from earlier work.

Regarding Acemannan [ACM 1], the activation of macrophages result is given as “systemic immuno-modulated activation of macrophages”.
